In PubChem BioAssay AID192 (DTP/NCI, 2004):
“And” between values parts separate entries of the source, which are not always exact repeats. Identical values can stand only once. Toxic doses and inconclusive results are not listed. Peptide text beside a SMILES is read from it. * marks the point of attachment. Cbz = O=C(OCc1ccccc1)*

System: BDF1 mice, B16 melanoma ip, median survival T/C
Assay: NCI In Vivo Anticancer Drug Screen. Data for tumor model B16 Melanoma (intraperitoneal) in B6D2F1 (BDF1) mice
Details: endpoint: median survival time, higher = longer survival
Outline: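 Antitumor activity is assessed in mice bearing a transplanted tumor, with survival or tumor size compared against vehicle-dosed controls and expressed as T/C.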

[1] = dose: 6.25 mg/kg/injection, schedule: Q01DX009 (ip), vehicle: saline
[2] = dose: 12.5 mg/kg/injection, schedule: Q01DX009 (ip), vehicle: saline
[3] = dose: 25.0 mg/kg/injection, schedule: Q01DX009 (ip), vehicle: saline
[4] = dose: 50.0 mg/kg/injection, schedule: Q01DX009 (ip), vehicle: saline with Tween-80
[5] = dose: 200.0 mg/kg/injection, schedule: Q01DX009 (ip), vehicle: saline with Tween-80
[6] = dose: 12.5 mg/kg/injection, schedule: Q01DX009 (ip), vehicle: Klucel (hydroxypropylcellulose) (HPC)
[7] = dose: 25.0 mg/kg/injection, schedule: Q01DX009 (ip), vehicle: Klucel (hydroxypropylcellulose) (HPC)
[8] = dose: 50.0 mg/kg/injection, schedule: Q01DX009 (ip), vehicle: Klucel (hydroxypropylcellulose) (HPC)
[9] = dose: 100.0 mg/kg/injection, schedule: Q01DX009 (ip), vehicle: Klucel (hydroxypropylcellulose) (HPC)
[10] = dose: 50.0 mg/kg/injection, schedule: Q01DX009 (ip), vehicle: saline
[11] = dose: 100.0 mg/kg/injection, schedule: Q01DX009 (ip), vehicle: saline with Tween-80
[12] = dose: 400.0 mg/kg/injection, schedule: Q01DX009 (ip), vehicle: saline with Tween-80

N=C(N)c1ccc(OCCCOc2ccc(C(=N)N)cc2Br)c(Br)c1
T/C [1]: 97 % of control and 114 % of control
T/C [2]: 97 % of control and 111 % of control
T/C [3]: 97 % of control and 111 % of control

COc1ccc(C(=S)N2CCN(c3ccccc3)CC2)cc1
T/C (dose: 12.5 mg/kg/injection, schedule: Q01DX009 (ip), vehicle: saline with Tween-80): 87 % of control
T/C [4]: 99 % of control
T/C [5]: 87 % of control

COC1C(O)C(C)OC(O[C@@H]2C[C@H]3CC[C@@H]4[C@H](CC[C@]5(C)[C@@H](C6=CC(=O)OC6)CC[C@]45O)[C@@]3(C)[C@H](O)C2)C1O (stereo partly specified)
T/C [6]: 96 % of control
T/C [7]: 87 % of control
T/C [8]: 95 % of control
T/C [9]: 98 % of control

NCCC(=O)OC1CCCc2c(O)c3c(c(O)c21)C(=O)c1ccccc1C3=O (stereo unspecified)
T/C [2]: 96 % of control
T/C [3]: 100 % of control
T/C [10]: 93 % of control

Nc1c(Cl)cc(C(=O)NC2CC2)cc1Cl
T/C [1]: 92 % of control
T/C [2]: 102 % of control
T/C [3]: 113 % of control
T/C [10]: 97 % of control

CCC[CH2][Sn]1([CH2]CCC)[O]OC(c2ccc(C)cc2)[O]1 (stereo unspecified)
T/C (dose: 0.38 mg/kg/injection, schedule: Q01DX009 (ip), vehicle: saline with Tween-80): 96 % of control
T/C (dose: 0.75 mg/kg/injection, schedule: Q01DX009 (ip), vehicle: saline with Tween-80): 96 % of control
T/C (dose: 1.5 mg/kg/injection, schedule: Q01DX009 (ip), vehicle: saline with Tween-80): 101 % of control
T/C (dose: 3.13 mg/kg/injection, schedule: Q01DX009 (ip), vehicle: saline with Tween-80): 115 % of control

CSCCC(NC(=O)C(Cc1ccccc1)NC(=O)OCc1ccccc1)C(=O)O (stereo not drawn) (Cbz-Phe-Met-OH; configuration not given here)
T/C [4]: 97 % of control
T/C [11]: 93 % of control

Cc1cc(O)c2c(c1O)C(=O)c1cccc(O)c1C2=O
T/C (dose: 0.75 mg/kg/injection, schedule: Q01DX009 (ip), vehicle: Klucel (hydroxypropylcellulose) (HPC)): 92 % of control
T/C (dose: 1.5 mg/kg/injection, schedule: Q01DX009 (ip), vehicle: Klucel (hydroxypropylcellulose) (HPC)): 87 % of control

O=C(Nc1ccc(C(=O)O)cc1)Nc1nccs1
T/C (dose: 25.0 mg/kg/injection, schedule: Q01DX009 (ip), vehicle: distilled water + Tween-80): 113 % of control
T/C (dose: 100.0 mg/kg/injection, schedule: Q01DX009 (ip), vehicle: distilled water + Tween-80): 113 % of control
T/C (dose: 200.0 mg/kg/injection, schedule: Q01DX009 (ip), vehicle: distilled water + Tween-80): 113 % of control

C=CCOCC(O)CNCCCOC (stereo unspecified)
T/C [1]: 102 % of control
T/C [2]: 98 % of control
T/C [3]: 98 % of control

ClCCN(CCCl)CCCN1c2ccccc2Sc2ccccc21
T/C (dose: 3.12 mg/kg/injection, schedule: Q04DX003 (ip), vehicle: saline with Tween-80): 109 % of control
T/C (dose: 6.25 mg/kg/injection, schedule: Q04DX003 (ip), vehicle: saline with Tween-80): 97 % of control

Oc1c(Cl)cc(Cl)cc1/C=N/NC(=S)Nc1cc(C(F)(F)F)cc(C(F)(F)F)c1
T/C (dose: 50.0 mg/kg/injection, schedule: Q01DX009 (ip), vehicle: olive oil, sesame oil, peanut oil): 92 % of control
T/C (dose: 200.0 mg/kg/injection, schedule: Q01DX009 (ip), vehicle: olive oil, sesame oil, peanut oil): 96 % of control

C[C@@H]1CCC[C@@H](NC(=O)N(CCCl)N=O)C1
T/C (dose: 4.7 mg/kg/injection, schedule: Q01DX009 (ip), vehicle: Klucel (hydroxypropylcellulose) (HPC)): 103 % of control
T/C (dose: 18.7 mg/kg/injection, schedule: Q01DX009 (ip), vehicle: Klucel (hydroxypropylcellulose) (HPC)): 210 % of control
T/C (dose: 18.75 mg/kg/injection, schedule: Q01DX009 (ip), vehicle: Klucel (hydroxypropylcellulose) (HPC)): 192 % of control
T/C (dose: 37.5 mg/kg/injection, schedule: Q01DX009 (ip), vehicle: Klucel (hydroxypropylcellulose) (HPC)): 103 % of control and 229 % of control

COc1cc2c(c(OC)c1OC)-c1ccc(SCc3ccccc3)c(=O)cc1[C@@H](NC(C)=O)CC2
T/C (dose: 1.56 mg/kg/injection, schedule: Q01DX009 (ip), vehicle: Klucel (hydroxypropylcellulose) (HPC)): 91 % of control and 111 % of control
T/C (dose: 3.12 mg/kg/injection, schedule: Q01DX009 (ip), vehicle: Klucel (hydroxypropylcellulose) (HPC)): 102 % of control and 107 % of control
T/C (dose: 6.25 mg/kg/injection, schedule: Q01DX009 (ip), vehicle: Klucel (hydroxypropylcellulose) (HPC)): 101 % of control and 106 % of control
T/C [6]: 109 % of control and 111 % of control
T/C [7]: 113 % of control

Cc1cc2nc(-c3ccccc3)c(-c3ccccc3)nc2cc1C
T/C [11]: 102 % of control
T/C [5]: 100 % of control
T/C [12]: 91 % of control

CCc1ccccc1NC(=O)Nc1ccccc1C
T/C (dose: 100.0 mg/kg/injection, schedule: Q04DX003 (ip), vehicle: Klucel (hydroxypropylcellulose) (HPC)): 87 % of control
T/C (dose: 200.0 mg/kg/injection, schedule: Q04DX003 (ip), vehicle: Klucel (hydroxypropylcellulose) (HPC)): 87 % of control
T/C (dose: 400.0 mg/kg/injection, schedule: Q04DX003 (ip), vehicle: Klucel (hydroxypropylcellulose) (HPC)): 87 % of control

COc1cc2c(cc1OC)C1CCN3C(=O)CCC3N1CC2 (stereo unspecified)
T/C [11]: 94 % of control
T/C [5]: 91 % of control
T/C [12]: 105 % of control

CSCCCCCCSC
T/C [8]: 93 % of control
T/C [9]: 105 % of control
T/C (dose: 200.0 mg/kg/injection, schedule: Q01DX009 (ip), vehicle: Klucel (hydroxypropylcellulose) (HPC)): 106 % of control
